The results in this text go back to patent publication US20260265298A1, “PEPTIDE SUBSTRATES AND INHIBITORS OF CATHEPSIN B” (The Regents of the University of California, priority 2023, published 2026).

Test [1] concerns mouse BV2 microglia cells. The test can be described thus: Cell death (LDH release) induced by low nutrient stress in microglia cells. It is filed as cell-based. As to conditions: 2 μM; 0% FBS for 24 hours. The method, then:
(§1) Regulation of cathepsin B activity during cell death induced by low nutrient stress in microglia cells. […] Microglia cells (mouse BV2 cells) were treated with low nutrient culture media (0% fetal bovine serum, FBS) compared to a normal nutrient condition (10% FSB) for 24 hours. The low nutrient stress condition induced cell death monitored by LDH (lactate dehydrogenase) released into the culture media. The stress-induced increase in cell death was reduced by the inhibitor Z-Arg-Lys-AOMK (2 μM), a selective inhibitor of cathepsin B. (n=6, mean+sem, *p<0.05, student's t-test). […] Cathepsin B activity was elevated in cytosol isolated from microglia cells after treatment with low nutrient stress (0% FBS) for 24 hours. Cathepsin B activity was measured with the specific substrate Z-Nle-Lys-Arg-AMC ([…] in assay). Furthermore, the increase in cytosolic cathepsin B activity was blocked by the cathepsin B inhibitor Z-Arg-Lys-AOMK (2 μM) during low nutrient stress. (n=6, mean+sem, *p<0.05, student's t-test).
In general terms: LDH leaks from cells whose membrane has failed.

For test [2], the target named is T1, cathepsin B (Mus musculus, UniProt P10605).
T1 construct: from tissue; host or cells: mouse ipsilateral brain cortex (homogenate and cytosol) after controlled cortical impact TBI
T1 sequence (P10605 80-333): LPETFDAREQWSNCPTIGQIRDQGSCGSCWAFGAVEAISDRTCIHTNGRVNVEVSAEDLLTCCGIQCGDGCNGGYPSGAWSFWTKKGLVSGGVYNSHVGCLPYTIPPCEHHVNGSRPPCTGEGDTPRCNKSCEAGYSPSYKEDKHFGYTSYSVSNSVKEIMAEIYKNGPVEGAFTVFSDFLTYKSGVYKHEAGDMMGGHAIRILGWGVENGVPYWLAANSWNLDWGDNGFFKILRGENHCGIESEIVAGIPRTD
As to the kind of experiment: Cytosolic cathepsin B activity in microglia cells during low nutrient stress. It counts as cell-based. As to conditions: 2 μM; 0% FBS for 24 hours; substrate Z-Nle-Lys-Arg-AMC. The method, then: as §1

Test [3] concerns TBI mice. As to the kind of experiment: Rotarod motor function in controlled cortical impact (CCI) model of TBI. It counts as in vivo, mouse. As to conditions: 20 mg/kg, ip, one day before TBI, day of TBI and day 1 after; measured day 1 after TBI. Here is the method: (§2) FIGS. 13a-13e show traumatic brain injury (TBI) in mice results in elevated brain cathepsin B activity, involved in motor deficit. […] Mice were subjected to the controlled cortical impact (CCI) model of TBI. Motor function was assessed by the rotarod assay on days 1, 3, and 7 after TBI. Control sham mice received surgery of the scalp but no TBI. Rotarod data are shown as mean+SD (n=5/group, mean+sem, *p<0.05, student's t-test). […] The TBI injury was conducted on the ipsilateral side of the brain cortex, shown by the tissue lesion at the site of TBI impact. […] Cathepsin B activity in homogenate of mouse brain cortex was measured with the Z-Nle-Lys-Arg-AMC substrate on day 6 after TBI. These TBI mice were treated with vehicle or Z-Arg-Lys-AOMK inhibitor (20 mg/kg, ip). (n=6 per group for vehicle-treated, and n=4 per group for treatment with inhibitor Z-Arg-Lys-AOMK; mean+sem, p<0.05, student's t-test).
TBI mice were treated with Z-Arg-Lys-AOMK inhibitor (20 mg/kg, ip) one day before TBI, on the day of TBI, and on day 1 after TBI. Motor function was measured on day 1 after TBI. (n=6 per group for vehicle-treated, and n=4 per group for treatment with inhibitor Z-Arg-Lys-AOMK; mean+sem, p<0.05, student's t-test).
For orientation: In the rotarod test animals must keep their balance on a rotating rod.

The target of test [4] is T1, cathepsin B. The test can be described thus: Cathepsin B activity in ipsilateral brain cortex of TBI mice. It counts as in vivo. As to conditions: 20 mg/kg, ip; day 6 after TBI. The method, then:
as §2
Cytosol from brain homogenate (obtained on day 6 after TBI) was isolated by differential density centrifugation. Cathepsin B in the cytosol from brain cortex was measured by the substrate Z-Nle-Lys-Arg-AMC substrate. (n=6 per group for vehicle treated, and n=4 per group for treatment with inhibitor Z-Arg-Lys-AOMK: mean+sem, p<0.05, student's t-test).

Z-Arg-Lys-AOMK: the “stress-induced increase in cell death (LDH released into the culture media)” value in test [1] is given as “reduced”. Besides, in test [2], the “increase in cytosolic cathepsin B activity” value was “blocked”. Moreover, the “motor deficit (rotarod)” value in test [3] is recorded as “improved motor deficit”. Besides, in test [4], the “cathepsin B activity in brain cortex cytosol” value is “inhibition of cathepsin B activity” and the “cathepsin B activity in brain cortex homogenate” value is reported as “inhibition of cathepsin B activity”.
